Test systems include A549; CAKI-1; CCRF-CEM; COLO 205; EKVX; HCC 2998; HOP-62; KM12; LOX IMVI; MOLT-4; NCI-H23; OVCAR-4; SF-268; SF-539; SK-MEL-2; SK-MEL-5; SK-OV-3; SNB-19; UACC-62; UO-31.
Common to all, as to experiment: DTP human tumour cell line panel, 48 h

One may read the GI50 as the concentration that inhibits growth by half.

Structures are written as SMILES.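 Results reflect a 48-hour exposure of cells in 96-well plates to compound at five concentrations. The concentration for 50% growth inhibition is given as GI50.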 The source made the active and inactive calls. Rule as the data show it: active = GI50 up to about 1.1 µM and inactive = higher.

As to `COc1ccc(C(=O)O/N=C2/CCC/C2=C\c2ccccc2)cc1`, the GI50 in the test on A549, with CAKI-1, in the test with CCRF-CEM, with COLO 205, in the test with EKVX and in the test with HCC 2998 was > 100 µM (inactive) throughout. Moreover, the GI50 in the test on HOP-62 is > 100 µM (inactive); with KM12, > 100 µM (inactive); in the test on LOX IMVI, > 100 µM (inactive); with MOLT-4, > 100 µM (inactive); with NCI-H23 it was > 100 µM (inactive); with OVCAR-4, > 66.1 µM (inactive). The GI50 with SF-268 is > 81.8 µM (inactive); in the test with SF-539 it was > 59.3 µM (inactive); in the test on SK-MEL-2 it was > 100 µM (inactive); in the test on SK-MEL-5, > 100 µM (inactive); with SK-OV-3, > 100 µM (inactive); in the test on SNB-19, > 100 µM (inactive). The GI50 with UACC-62 and with UO-31 was > 100 µM (inactive) in each case.

On to `O=C(CNC(c1ccccc1)(c1ccccc1)c1ccccc1)NC1CCCCC1NC(=O)CNC(c1ccccc1)(c1ccccc1)c1ccccc1` (stereo not given), for which the GI50 in the test with A549 was > 100 µM (inactive); in the test with CAKI-1, > 100 µM (inactive); in the test on CCRF-CEM, > 100 µM (inactive); with COLO 205, > 100 µM (inactive); with EKVX, 2.99 µM (inactive); in the test on HCC 2998 it was > 100 µM (inactive). The GI50 with HOP-62 was 27.8 µM (inactive); in the test on KM12, > 100 µM (inactive); in the test on LOX IMVI, > 100 µM (inactive); in the test on MOLT-4 it was > 100 µM (inactive); in the test with NCI-H23, > 100 µM (inactive); with OVCAR-4, > 100 µM (inactive). For the same compound, the GI50 in the test with SF-268 was 24.2 µM (inactive); in the test on SF-539 it was > 100 µM (inactive); in the test with SK-MEL-2 it was > 100 µM (inactive); with SK-MEL-5 it was > 100 µM (inactive); with SK-OV-3, > 100 µM (inactive); in the test on SNB-19, > 100 µM (inactive). Moreover, the GI50 with UACC-62 and with UO-31 was > 100 µM (inactive) throughout.

On to `C[C@@]1(OC(=O)c2cc([N+](=O)[O-])cc([N+](=O)[O-])c2)C[C@@H]2CCCC[C@@H]21`, for which the GI50 in the test with A549, in the test with CAKI-1, in the test with CCRF-CEM, with COLO 205, with EKVX and in the test on HCC 2998 was > 100 µM (inactive) throughout. The GI50 in the test with HOP-62, with KM12, in the test with LOX IMVI, in the test on MOLT-4, in the test on NCI-H23 and with OVCAR-4 was > 100 µM (inactive) each time. Moreover, the GI50 was > 100 µM (inactive) in the test on SF-268; > 100 µM (inactive) with SF-539; > 100 µM (inactive) with SK-MEL-2; 83.8 µM (inactive) with SK-MEL-5; > 100 µM (inactive) in the test on SK-OV-3; > 100 µM (inactive) in the test on SNB-19. For the same compound, the GI50 with UACC-62 and with UO-31 was > 100 µM (inactive) throughout.

With `CC(=O)c1c(N=[N+]=[N-])c2cccc3c2n(c1=O)CCC3`, the GI50 was 29 µM (inactive) in the test with A549; 28.3 µM (inactive) in the test with CAKI-1; 19.1 µM (inactive) with CCRF-CEM; 21.4 µM (inactive) in the test on COLO 205; 21.3 µM (inactive) with EKVX; 16.9 µM (inactive) in the test with HCC 2998. Also, the GI50 was 20 µM (inactive) with HOP-62; 14.6 µM (inactive) with KM12; 15.1 µM (inactive) in the test on LOX IMVI; 23.4 µM (inactive) in the test on MOLT-4; 20.8 µM (inactive) in the test on NCI-H23; 21 µM (inactive) in the test on OVCAR-4. Further, the GI50 in the test on SF-268 is 18.6 µM (inactive); in the test on SF-539 it was 27.9 µM (inactive); with SK-MEL-2 it was 21.7 µM (inactive); in the test on SK-MEL-5 it was 14.7 µM (inactive); with SK-OV-3 it was 46.7 µM (inactive); in the test on SNB-19, 32.3 µM (inactive). In addition, the GI50 in the test on UACC-62 was 16.5 µM (inactive); with UO-31 it was 30.2 µM (inactive).

For `CC(=O)Nn1cnc(C(=N)C#N)c1N`, the GI50 with A549, in the test with CAKI-1, in the test on CCRF-CEM, in the test with COLO 205, in the test with EKVX and in the test on HCC 2998 was > 100 µM (inactive) throughout. For the same compound, the GI50 in the test on HOP-62, with KM12, in the test with LOX IMVI, with MOLT-4, in the test with NCI-H23 and in the test with OVCAR-4 was > 100 µM (inactive) in each case. The GI50 in the test on SF-268, in the test on SF-539, in the test on SK-MEL-2, in the test on SK-MEL-5, in the test with SK-OV-3 and with SNB-19 was > 100 µM (inactive) each time. Also, the GI50 in the test on UACC-62 and with UO-31 was > 100 µM (inactive) each time.

As for `CC(=O)NC(CCCCNC(=O)OCc1ccccc1)C(=O)NCc1ccccc1` (stereo not given), the GI50 with A549, with CAKI-1, with CCRF-CEM, in the test on COLO 205, with EKVX and in the test with HCC 2998 was > 100 µM (inactive) in each case. The GI50 with HOP-62, in the test with KM12, in the test on LOX IMVI, in the test with MOLT-4, in the test with NCI-H23 and in the test on OVCAR-4 was > 100 µM (inactive) throughout. In addition, the GI50 in the test on SF-268, in the test on SF-539, in the test with SK-MEL-2, in the test on SK-MEL-5, with SK-OV-3 and in the test on SNB-19 was > 100 µM (inactive) throughout. Also, the GI50 in the test with UACC-62 and in the test on UO-31 was > 100 µM (inactive) in each case.

Take `O=Cc1cc2c(s1)C(=O)c1sccc1C2=O`: the GI50 in the test on A549 is 0.813 µM (active); in the test with CAKI-1, 1.77 µM (inactive); in the test on CCRF-CEM, 0.476 µM (active); in the test with COLO 205, 2.21 µM (inactive); in the test with EKVX it was 1.61 µM (inactive); with HCC 2998, 1.56 µM (inactive). The GI50 is 1.82 µM (inactive) with HOP-62; 2.68 µM (inactive) with KM12; 0.0376 µM (active) with LOX IMVI; 1.23 µM (inactive) in the test on MOLT-4; 0.191 µM (active) in the test with NCI-H23; 0.22 µM (active) in the test on OVCAR-4. Further, the GI50 in the test with SF-268 was 0.247 µM (active); with SF-539 it was 0.215 µM (active); in the test with SK-MEL-2, 0.337 µM (active); in the test on SK-MEL-5, 0.129 µM (active); in the test on SK-OV-3, 2.15 µM (inactive); in the test with SNB-19, 0.366 µM (active). Besides, the figures for the GI50 with UACC-62 and with UO-31 were 0.248 µM (active) and 0.411 µM (active), respectively.

In the case of `CCOC(=O)C(Cc1ccc(N(CCCl)CCCl)cc1)NC(=O)C(Cc1ccccc1)NC=O` (stereo not given), the GI50 with A549 is 0.431 µM (active); with CAKI-1, 0.0385 µM (active); with CCRF-CEM it was 0.0526 µM (active); in the test with COLO 205 it was 0.197 µM (active); in the test on EKVX it was 0.332 µM (active); with HCC 2998, 0.0186 µM (active). The concentration for 50% growth inhibition (GI50) is 0.274 µM (active) in the test on HOP-62; 0.48 µM (active) in the test on KM12; 0.0713 µM (active) in the test on LOX IMVI; 0.0289 µM (active) in the test on MOLT-4; 0.00906 µM (active) in the test with NCI-H23; 0.0208 µM (active) in the test with OVCAR-4. Further, the concentration for 50% growth inhibition (GI50) was 0.0968 µM (active) with SF-268; 0.139 µM (active) in the test with SF-539; 0.161 µM (active) with SK-MEL-2; 0.219 µM (active) in the test with SK-MEL-5; 0.475 µM (active) with SK-OV-3; 0.421 µM (active) in the test on SNB-19. The concentration for 50% growth inhibition (GI50) is 0.094 µM (active) with UACC-62 and 0.0689 µM (active) with UO-31.

On to `O=S1(=O)c2ccccc2N(c2ccccc2)c2nnnn21`, for which the GI50 is 33.4 µM (inactive) in the test with A549; 17.6 µM (inactive) in the test with CAKI-1; 3.86 µM (inactive) in the test on CCRF-CEM; 22.5 µM (inactive) in the test on COLO 205; 33 µM (inactive) with EKVX; 17.7 µM (inactive) in the test with HCC 2998. Further, the GI50 in the test on HOP-62 is 21 µM (inactive); with KM12 it was 29.4 µM (inactive); in the test with LOX IMVI, 16.7 µM (inactive); in the test on MOLT-4, 19.5 µM (inactive); in the test on NCI-H23 it was 28.5 µM (inactive); in the test with OVCAR-4, 16.7 µM (inactive). Further, the GI50 was 34.7 µM (inactive) with SF-268; 18.7 µM (inactive) with SF-539; 40.4 µM (inactive) with SK-MEL-2; 34.4 µM (inactive) in the test on SK-MEL-5; 42.3 µM (inactive) with SK-OV-3; 23.3 µM (inactive) with SNB-19. For the same compound, the GI50 in the test on UACC-62 is 15.7 µM (inactive); in the test on UO-31, 39.5 µM (inactive).

As for `Cc1sc2ncnc(NCCc3ccccc3)c2c1C`, the GI50 is 14.7 µM (inactive) in the test on A549; 7.53 µM (inactive) in the test on CAKI-1; 13 µM (inactive) with CCRF-CEM; 11 µM (inactive) with COLO 205; 1.68 µM (inactive) with EKVX; 15.1 µM (inactive) in the test with HCC 2998. The GI50 in the test with HOP-62 was 12.8 µM (inactive); in the test with KM12, 13.4 µM (inactive); in the test on LOX IMVI it was 4.82 µM (inactive); in the test on MOLT-4, 14.9 µM (inactive); in the test with NCI-H23, 10.9 µM (inactive); in the test on OVCAR-4, 13.6 µM (inactive). The GI50 in the test on SF-268 was 21.8 µM (inactive); with SF-539, 15 µM (inactive); in the test with SK-MEL-2 it was 14.8 µM (inactive); in the test on SK-MEL-5 it was 1.33 µM (inactive); with SK-OV-3 it was 22.6 µM (inactive); in the test on SNB-19, 23.7 µM (inactive). The GI50 was 11.9 µM (inactive) in the test with UACC-62 and 15.6 µM (inactive) with UO-31.

(Values after ChEMBL document CHEMBL1201862, “PubChem BioAssay data set” (2004).)
